Holding throughout (assay): area under concentration-response curve (viability) (AUC (a.u.)); higher = less active
What all share (settings): 48 h

In assay [1] the test system is NCI-H295R. Summed up:
(§1)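 AC50 and area under the curve values derive from fitted concentration-response curves, restricted to inhibitory or non-responding curve classes. The curves came from three adrenocortical carcinoma cell lines in 1,536-well plates, each receiving 23 nL of every library compound at 11 concentrations. Viability was read by CellTiter-Glo luminescence after 48 h, normalised per plate to vehicle and empty-well controls.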

The subject of assay [2] is CU-ACC1. The procedure, abridged: as §1
The subject of assay [3] is CU-ACC2. The procedure, abridged: as §1

From the supplement of paper PMC10949913 come the findings set out here.

Each structure is given as a SMILES string.

On to `COc1ccc(C(=O)N2CCN(C(=O)/C=C/c3ccc(Br)cc3)CC2)cc1`, for which the “area under concentration-response curve” value in assay [1] worked out at 536; in assay [2] it was 499; in assay [3], 638.
Consider `COc1cc2c(cc1-c1c(C)noc1C)ncc1[nH]c(=O)n([C@H](C)c3ccccn3)c12`, for which the entries for the “area under concentration-response curve” value in assay [1], in assay [2] and in assay [3] were 459, 490 and 515, respectively.
For `CN(C)CC/C=C1/c2ccccc2COc2ccc(CC(=O)O)cc21` the same measures were 509, 467 and 570.
Consider `Cn1cc(-c2nc(N[C@@H]3CCCC[C@@H]3N)c(F)c3c2C(=O)NC3)cn1`, for which the “area under concentration-response curve” value in assay [1] came to 660; in assay [2] it was 623; in assay [3] it was 719.
For `NC(=O)c1ccc(-c2nc(-c3ccc4c(c3)OCO4)c(-c3ccccn3)[nH]2)cc1` the same measures were 509, 286 and 633.
On the same counts, the results for `CCOCC(O)COc1ccc(NC(=O)CC[S+](C)C)cc1` (stereo not drawn) are 411, 367 and 394.
For `C/C=C/C(=O)N(CC)c1ccccc1C` the same measures were 441, 417 and 468.
As to `C[C@H](CCC(=O)O)[C@H]1CC[C@H]2[C@@H]3[C@H](O)C[C@@H]4C[C@H](O)CC[C@]4(C)[C@H]3CC[C@]12C`, the “area under concentration-response curve” value came to 485 in assay [1], 477 in assay [2] and 558 in assay [3].
On the same counts, the results for `CCNC(=O)Nc1ccc(Oc2ncnc(N)c2/C=N/OC)cc1Cl` are 567, 509 and 645.
On the same counts, the results for `CN(C)[C@H]\1[C@@H]2[C@@H](O)[C@@H]\3C(=C)C4=C(C(=CC=C4)O)C(=O)C3=C(\O)[C@@]2(O)C(=O)\C(=C1O)C(N)=O` are 540, 493 and 473.
For `CN1CCN2c3ncccc3Cc3ccccc3C2C1` (stereo not drawn) the same measures were 556, 494 and 579.
With `CC(C)n1cc(-c2ccc3c(c2)N(C)CC3)c2c(N[S+](=O)([O-])c3ccn(C)n3)ccnc21`, the “area under concentration-response curve” value in assay [1] amounted to 568; in assay [2], 516; in assay [3], 638.
Consider `CCCCC(F)(F)[C@@]1(O)CC[C@H]2[C@@H](CC(=O)[C@@H]2CCCCCCC(=O)O)O1`, for which the “area under concentration-response curve” value in assay [1] was 541; in assay [2], 494; in assay [3], 599.
Regarding `COC1=CC=C2/C3=N/CCN3\C(=N/C2=C1OC)NC(=O)C4=CC=CN=C4`, the “area under concentration-response curve” value in assay [1] is 619; in assay [2] it was 662; in assay [3] it was 698.
Take `COc1cc2c(cc1OC)CC(=O)N(CCCN(C)C[C@H]1Cc3cc(OC)c(OC)cc31)CC2`: the “area under concentration-response curve” value came out at 542 in assay [1], 486 in assay [2] and 601 in assay [3].
On to `CCC/1=C/C2=C(C(=O)N1CC(=O)C3=CC=CC=C3)C(=C([N]2C)C(=O)NC4CCN(CC4)C(=O)CO)OCC(F)(F)F`, for which the “area under concentration-response curve” value came out at 594 in assay [1], 572 in assay [2] and 642 in assay [3].
